# How the values were obtained:
# human glioblastoma cells = test: Bioluminescence substrate permeation in luciferase-expressing glioblastoma cells; assay type: cell-based; settings: TTFields exposure
# Description: Bioluminescence imaging: For all bioluminescence work, we used genetically-modified GBM2, GBM39 and U87-MG whereby the glioblastoma cells were transfected with lentiviral vectors that expressed either firefly luciferase (fLuc for GBM39) or a fusion protein of GFP and firefly luciferase (GFP/fLuc for GBM2 and eGFP-fLuc for U87-MG) or a Renilla luciferase-Red Fluorescence protein fusion (RLuc-RL8 for KR158B).
# U87-MG/eGFP-fLuc cells = test: Reversibility of TTFields-induced uptake; assay type: cell-based, human; settings: TTFields 24 h vs none vs TTFields 24 h followed by no TTFields 24 h
# Description: To assess the reversibility of the effect of TTFields on cancer cells, U87-MG/eGFP-fLuc cells were subjected to three conditions: (1) No TTFields exposure, standard cell culture conditions (37° C., […], 5% CO2), (2) TTFields exposure for 24 h and (3) TTFields exposure for 24 h followed by no TTFields exposure for 24 h. The readouts of BLI, PpIX fluorescence (5-ALA product) and Dextran-FITC (4 kDa) fluorescence were acquired. All experimental conditions were done in triplicate. […] Here, NS=not significant; BLI=bioluminescent imaging; eGFP=enhanced green fluorescence protein; fLuc=firefly luciferase; 5-ALA=5 aminolevulinic acid; FITC=fluorescein isothiocyanate; PpIX=protoporphyrin IX; and FL=fluorescence.
# In vitro tumor treating field apparatus: The coverslips were transferred to a ceramic dish of the Inovitro™ system, which in turn was mounted onto Inovitro™ base plates (Novocure Ltd., Haifa, Israel). Tumor treating fields at 200 kHz (1-4 V/cm) were applied through an Inovitro™ power generator. Incubator ambient temperatures spanned 20-27° C. with a target temperature of 37° C. in the ceramic dishes upon application of the TTFields. Duration of TTFields exposure lasted anywhere from 0.5 to 72 h, after which coverslips were removed and processed for the appropriate bioassays (see below). […]
# BBB of rat brain [1] = test: Evans Blue accumulation in rat brain after alternating electric fields; assay type: in vivo; settings: 100 kHz fields 72 h vs sham heat/control
# Description: A set of in vivo experiments on rats was also run to quantify the increase in vessel permeability caused by exposure to the alternating electric fields. These experiments used Evans Blue (EB) dye, which is an azo dye that has a very high affinity for serum albumin (molecule size ˜69 kDa). Because of its large molecule size, serum albumin will ordinarily not be able to get past the BBB.
# This was accomplished by shaving each rat's head, positioning a first pair of capacitively coupled electrodes on the top and bottom of the rat's head, and positioning a second pair of capacitively coupled electrodes on the left and right sides of the rat's head. A 100 kHz AC voltage was then applied between the top and bottom electrodes for 1 second, followed by a 100 kHz AC voltage applied between the right and left electrodes for 1 second, in a repeating sequence.
# Under the conditions indicated in Table 1 and for the times indicated on Table 1, EB was injected intravenously into the tail vein under anesthesia (Once injected, EB immediately binds to Albumin), and the EB was allowed to circulate for 2 hours in all cases. The following steps were then performed: (a) intracardiac perfusion with saline; (b) brains are sliced in four pieces with a brain slicer; (c) pieces were photographed to localize staining and weighted; (d) EB extraction after tissue homogenization with TCA 50% (1:3) and centrifuge and (e) EB quantification at 610 nm. Results are given as μg EB per g tissue.
# During the experiment, two animals from group 2 and one animal from group 4 were excluded (disrupted treatment, failure to inject EB into the tail vein). There were no differences between the animals treated with alternating electric fields (groups 1 and 2) and therefore these animals were grouped together. Similarly, there were no differences between sham heat and control animals (groups 3 and 4) and therefore these animals were grouped together.
# EB accumulation in these four specific sections was then measured. In addition, a computer simulation was performed to determine the field strength in each of these four sections. […]
# BBB of rat brain [2] = test: DCE-MRI of gadolinium contrast agent accumulation in rat brain; assay type: in vivo; settings: for contrast agent accumulation in the brain tissue after recovery: 100 kHz fields 72 h followed by 96 h without fields
# Description: Yet another set of in vivo experiments was performed using Dynamic Contrast Enhanced MRI (DCE-MRI) with intravenous injection of Gadolinium contrast agent (Gd-DTPA, Magnetol, MW 547). In these experiments, test rats were treated with 100 kHz alternating electric fields for 72 h, and control rats were not treated with alternating electric fields for the same period of time. After this 72 h period, the alternating electric field was turned off, the rats were anesthetized, and a series of 60 Tlw MRI scans (each of the scans having a duration of 28 seconds) was acquired. The gadolinium contrast agent was injected into the rat's tail vein during the 7th of these 60 scans.
# The image analysis for each rat included (1) determining a baseline for each voxel by calculating the mean of the first six Tlw MRI scans for each voxel (i.e., the scans prior to the injection of the gadolinium); (2) computing voxel by voxel, the percent signal change (i.e., gadolinium accumulation) over time relative to the baseline; (3) segmenting the brain into anterior, middle, and posterior segments; (4) generating for each of the three segments the mean percent signal change with respect to the baseline over all the voxels in the respective segment and then (5) averaging 4 consecutive time points (i.e. 4 scans) together. Finally, the data from all of the rats within any given group were averaged together.
# To test whether this increase in permeability of the BBB was temporary, the same test conditions were repeated, but followed with an additional 96 hours without alternating electric fields. After this 96 hour period, a series of 60 Tlw MM scans (each of the scans having a duration of 28 seconds) was acquired using the same procedure described above (including the gadolinium injection). The results of this portion of the DCE-MM experiment for each of the three segments of the brain are also depicted in FIG. 8. […] From this we can conclude that the permeability of the BBB returns to normal after the alternating electric fields are discontinued.
# The relationship between the intensity of the alternating electric fields and the impact of those fields on BBB integrity and permeability was also apparent from in vivo experiments in rats using serial dynamic contrast-enhanced (DCE) MM to measure gadolinium (Gd) uptake after 100 kHz alternating electric fields were applied for 72 hours. The rat's brains were segmented into three regions (anterior, posterior, and middle), and simulations of the alternating electric fields delivery to those three regions yielded field strengths of 1.5±0.6 V/cm RMS, 2.1±1.2 V/cm RMS, and 2.7±1.7 V/cm RMS respectively. […] These findings also indicate that the cells' response to alternating electric fields depends on the intensity of the fields.
# GBM39/Luc cells = test: Drug sensitivity / synergy with TTFields; assay type: cell-based, human
# GBM F98 cells = test: Paclitaxel plus alternating electric fields in orthotopic glioblastoma rats; assay type: in vivo, rat
# Description: Another set of in vivo experiments was performed to determine whether paclitaxel (PTX, which is a drug that ordinarily cannot traverse the BBB) can make it across the BBB when the subject is treated with alternating electric fields. In one of these experiments, glioblastoma was induced in rats by injecting them orthotopically with GBM F98 cells on day 0 of the experiment. On day 6, a first set of MRI scans of each rat's brains was obtained. Alternating electric fields at 100 kHz were applied to all the rats on days 7 through 10. On day 10 (i.e., after applying the fields for 72 hours), some of the rats were injected i.p. with 25 mg/kg PTX, while other rats were not injected. Subsequently, on day 13 (i.e., 3 days post PTX administration), a second set of MRI scans of each rat's brain was obtained. Ki67 (red) and DAPI (blue) staining was evaluated for the test and control rats.
# A similar experiment using a 15 mg/kg dose of PTX was performed, except that instead of quantifying the Ki67/DAPI ratio on day 13, Mill scans and post mortem tissue sections were used to determine the fold increase of the tumor volume on day 15. The tumor volumes from these experiments are depicted in FIG. 11. […] And the inventors have concluded that the alternating electric fields allow the PTX (or metabolites thereof) to cross the BBB.
# firefly luciferase = target: T1, firefly luciferase (Photinus pyralis, UniProt P08659); test: Activity of purified firefly luciferase under TTFields; assay type: biochemical
# T1 construct: purchased Sigma Aldrich Inc (St. Louis, Mo.) SRE0045-2MG
# T1 sequence (P08659 whole entry): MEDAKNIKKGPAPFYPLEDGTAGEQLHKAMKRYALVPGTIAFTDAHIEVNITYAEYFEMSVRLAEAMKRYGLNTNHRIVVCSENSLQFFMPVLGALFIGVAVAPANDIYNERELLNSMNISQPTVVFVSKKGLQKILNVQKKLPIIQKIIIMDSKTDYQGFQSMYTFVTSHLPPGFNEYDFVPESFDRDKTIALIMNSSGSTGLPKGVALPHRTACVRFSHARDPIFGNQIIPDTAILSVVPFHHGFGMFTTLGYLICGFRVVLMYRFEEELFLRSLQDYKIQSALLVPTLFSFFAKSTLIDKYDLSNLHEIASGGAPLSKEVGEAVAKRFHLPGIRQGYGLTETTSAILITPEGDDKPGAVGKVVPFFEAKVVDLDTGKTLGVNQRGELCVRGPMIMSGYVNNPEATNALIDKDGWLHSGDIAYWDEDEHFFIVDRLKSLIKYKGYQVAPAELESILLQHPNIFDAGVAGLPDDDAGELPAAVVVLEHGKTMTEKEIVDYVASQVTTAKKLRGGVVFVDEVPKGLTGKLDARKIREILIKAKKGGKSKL
# Description: U87-MG/eGFP-fLuc cells were seeded on Thermanox glass coverslips, allowed to settle and grow, and then subjected to either TTFields or no TTFields. […] This increase in BLI occurred as early as 30 minutes after commencement of TTFields and continued to 24 h of TTFields exposure. […] Without being bound by this theory, it is believed that the elevation in bioluminescence was not due to a direct effect of TTFields on firefly luciferase activity because exposure of purified firefly luciferase to 200 kHz TTFields led to over a 1000-fold loss in enzymatic activity 60 minutes after initiation of TTFields.
# FIG. 16B depicts the effect of TTFields on eGFP fluorescence in U87-MG/eGFP-fLuc cells observed from time course of representative images (not shown) for TTFields-exposed vs. TTFields-unexposed U87-MG/eGFP-fLuc. […] More specifically, FIG. 16C depicts the effect of TTFields on the fLuc bioluminescence (fLuc-BLI) over eGFP fluorescence (eGFP-FL) ratio for U87-MG/eGFP-fLuc cells as a function of length of TTFields exposure; and FIG. 16D depicts the effect of TTFields exposure vs. non-exposure on the fLuc-BLI/eGFP-FL ratio as a function of TTFields exposure time (hours).
compound,measurement,setting,value
O=C(O)[C@H]1CSC(c2nc3ccc(O)cc3s2)=N1 [D-luciferin],permeation of luciferase substrate through the plasma membrane,human glioblastoma cells,increased permeation
same,reversibility of increased uptake,U87-MG/eGFP-fLuc cells,reversibly increase uptake
"Cc1cc(-c2ccc(/N=N/c3ccc4c(S(=O)(=O)O)cc(S(=O)(=O)O)c(N)c4c3O)c(C)c2)ccc1/N=N/c1ccc2c(S(=O)(=O)O)cc(S(=O)(=O)O)c(N)c2c1O [EB, Evans Blue]","EB accumulation in posterior sections (3, 4)","BBB of rat brain [1]; EB i.v., 2 h circulation",smaller increase (that was not statistically significant)
same,"EB accumulation in sections 1, 2 (frontal cerebrum)","BBB of rat brain [1]; EB i.v., 2 h circulation",statistically significant increase
same,"average EB accumulation in the rat brain, averaged over all four sections",BBB of rat brain [1]; p<0.05,higher accumulation
O=C([O-])CN(CCN(CC(=O)[O-])CC(=O)O)CCN(CC(=O)[O-])CC(=O)O.[Gd+3] [Gd-DTPA],Gd accumulation in the anterior part of the brain,BBB of rat brain [2]; 100 kHz fields 72 h,no significant Gd accumulation
same,signal enhancement in the middle and posterior brains,"BBB of rat brain [2]; 100 kHz fields 72 h, about 10 minutes after Gd injection, vs control rats",significantly increased signal enhancement
same,contrast agent accumulation in the brain tissue after recovery,BBB of rat brain [2]; listed as Gd,no significant accumulation
same,contrast agent accumulation in the brain tissue after recovery,BBB of rat brain [2]; listed as contrast agent,not significantly different
same,contrast agent accumulation in the brain tissue,BBB of rat brain [2]; 100 kHz fields 72 h vs control rats,significantly higher
same,spatial distribution of Gd enhancement,"BBB of rat brain [2]; test rats, 20 to 23 minutes post-contrast administration",distributed in the whole brain
CCc1c2c(nc3ccc(OC(=O)N4CCC(N5CCCCC5)CC4)cc13)-c1cc3c(c(=O)n1C2)COC(=O)[C@]3(O)CC [Irinotecan],synergy of TTFields plus drug,GBM39/Luc cells,synergy was found
same,sensitivity of cells to drug,GBM39/Luc cells; TTFields for 3 days vs no TTFields,improves the sensitivity
"CC(=O)O[C@H]1C(=O)[C@@]2(C)[C@H]([C@H](OC(=O)c3ccccc3)[C@]3(O)C[C@H](OC(=O)[C@H](O)[C@@H](NC(=O)c4ccccc4)c4ccccc4)C(C)=C1C3(C)C)[C@]1(OC(C)=O)CO[C@@H]1C[C@@H]2O [PTX, paclitaxel]",fold increase of the tumor volume,"GBM F98 cells; 15 mg/kg PTX + 100 kHz fields vs heat only, heat+PTX, fields only, day 15",significant decrease in the fold tumor volume increase
same,Ki67/DAPI ratio (cell proliferation in the GBM tumor),"GBM F98 cells; 25 mg/kg PTX i.p. after 72 h 100 kHz fields vs fields only, day 13",significant decrease in cell proliferation
Oc1ccc(Cc2nc3c(Cc4ccccc4)nc(-c4ccc(O)cc4)cn3c2O)cc1 [coelenterazine],permeation of luciferase substrate through the plasma membrane,human glioblastoma cells,increased permeation
firefly luciferase: purified firefly luciferase enzyme,loss in enzymatic activity,"firefly luciferase; 200 kHz TTFields, 60 minutes after initiation",> 1000 fold
same,activity of purified firefly luciferase,"firefly luciferase; TTFields vs no TTFields, p<0.01",significantly decreased activity

# Reference: patent publication US20230009366A1, “Using Alternating Electric Fields at Different Frequencies to Increase Permeability of the Blood Brain Barrier and also to Provide Other Benefits” (Novocure GmbH, priority 2021, published 2023)
